87 compounds from a melting point compilation (Tetko et al.; mined from patent text by program, amines drawn as free bases though some values may be those of a salt) can be followed below.

SMILES strings stand for the structures.

Compound `O=c1[nH]c2c(n(O)c1=O)C1=C(CCC(n3ccc(CN4CCN(C(c5ccccc5)c5ccccc5)CC4)c3)=C1)CC2` yielded a melting point greater than 200 °C.
In the case of `CC(C)(C)OC(=O)NNC(=N)C(Cl)(Cl)Cl` it was 150 °C; in that of `CC(C)c1cc(-c2ccc(F)c3ccccc23)nc(Nc2ccccc2)n1`, 85.7 to 86.3 °C.
Take `C[C@@H]1C[C@@H](O)CC(C)(C)C1=O`: the melting point fell in the range of 49 to 50 °C.
Compound `CC(C)N1C(=O)c2cnc(Cl)cc2C1=O` gave a melting point of 94 to 96 °C.
In turn, `OC1COC(O)C(F)(F)C1O` (configuration not stated) had a melting point of 146 to 148 °C.
Take `Nc1ccc(SCC2CCCCC2)cc1[N+](=O)[O-]`: the melting point fell in the range of 80 to 82 °C.
On to `CCCC(CCC)Nc1cc(C(=O)O)ccc1N1C(=O)CCC1(CO)CO`, for which the melting point is 227 to 229 °C.
With `Cc1cccc(NC(=O)NC2N=C(c3ccccc3F)c3ccccc3N(CC(=O)NC3C4CC5CC(C4)CC3C5)C2=O)c1` (configuration not stated), the melting point lay within 245 to 246 °C.
On to `COC(=O)CCCc1cc2nc(Cl)ccc2n1S(=O)(=O)c1cccnc1`, for which the melting point worked out at 119 °C.
As to `Cc1cc(NCc2ccc3oc(-c4ccccc4-c4nnn[nH]4)c(Br)c3c2)n2nccc2n1`, the melting point is greater than 250 °C.
The figure for `COCCOc1cc2ncc(C#N)c(Nc3cc(OC)c(Cl)cc3Cl)c2cc1OCCN1CCOCC1` is 158 to 159 °C; for `CCOC(=O)c1nccn1C1Sc2ccccc2C1=O` (configuration not stated) it is 174 °C.
In the case of `C=C1CC2C(CCC3(C)C2CCC3(OC(C)=O)C(C)=O)C2(C)C1=CC(=O)CC2CCl` (configuration not stated), the melting point was 190 to 192 °C.
`COC(=O)CCCc1cc2nc(Cl)ccc2n1S(=O)(=O)c1ccccc1F` gave a melting point of 83 °C.
In the case of `COc1cc(C(=O)NCCc2cccc(C)c2)cc(OC)c1OC` it was 105 to 108 °C.
Compound `O=C(O)CCCc1c([N+](=O)[O-])cc(O)c(O)c1[N+](=O)[O-]` showed a melting point of 165 to 170 °C.
`C=CCCCCCCCCC(O)CNC(=O)N(C)O` (configuration not stated) came in with a melting point of 105 to 106 °C.
Consider `COC(=O)C1CCC(C)(C(=O)c2ccc(OC)cc2OC)C1(C)C` (configuration not stated), for which the melting point is 108 °C.
In the case of `COC(=O)N1CCCC2(Cc3ccc(Br)cc3)C(=O)N(c3cc(Cl)nc(Cl)c3)C(=O)N12` (configuration not stated) it was 81 °C.
`Cc1noc(NS(=O)(=O)c2ccccc2-c2ccc(-n3cccn3)cc2)c1C` had a melting point of 88 to 98 °C.
As to `Cc1c(F)c(F)cc2c1c(=O)c(C(=O)O)cn2-c1cc(N)c(F)cc1F`, the melting point is greater than 270 °C.
Compound `CNC(=S)NCCCSCc1c[nH]cn1` displayed a melting point of 118 to 120 °C.
For `CCOP(=O)(Cc1ccc(N)c2ccccc12)OCC`, the melting point lay in the range of 73 to 74 °C.
In the case of `O=C(Nc1nccs1)c1cccc(C[C@@H]2COc3ccc(OCc4nc5cc(F)ccc5s4)cc3[C@@H]2O)c1` (relative stereo) it was 120 °C.
In the case of `CCCNC(=O)c1ccc(F)c2c1CC(N(CCCc1c[nH]c3ccc(F)cc13)C1CCC1)CO2` (configuration not stated) it was 67 °C; in that of `Nc1sc2c(c1C(=O)c1ccc3c(c1)Cc1ccccc1-3)CCN(Cc1ccccc1)C2`, 197 to 200 °C.
The figure for `Cn1nc(-c2cnc3[nH]cc(C(=O)NC4CCCC4)c3n2)c2ccc(Cl)cc21` is 341 to 343 °C.
In the case of `O=C1CNc2ncc(I)cc2N1Cc1cccc(F)c1C(F)(F)F`, the melting point is greater than 200 °C.
`C[C@]1(F)C(=O)O[C@H](COC(=O)c2ccc(Cl)cc2)[C@H]1OC(=O)c1ccc(Cl)cc1` gave a melting point of 138 to 141 °C.
For `COC1N=C(c2ccccc2Cl)c2cc(Cl)ccc2-c2c[nH]cc21` (configuration not stated), the melting point is 215 to 218 °C.
The figure for `CCCCONc1ncn(-c2c(C)cccc2C)c(=O)n1` is 144 to 145 °C; for `CC(C)CCNc1nc(-c2ccccc2)c(-c2ccnc(Nc3ccccc3)n2)s1` it is 170 to 172 °C; for `COC(=O)c1cc(N)cc(N)c1SCc1ccccc1` it is 80 to 82 °C.
Regarding `CC(CCc1ccc(F)cc1)(Cn1ccnc1)Sc1cc(Cl)ccc1Cl` (configuration not stated), the melting point worked out at 148 °C.
In the case of `Oc1cc(Br)c2oc(-c3ccc(O)c(C(F)(F)F)c3)nc2c1` it was 183 to 185 °C; in that of `COC(=O)c1c(OCc2ccccc2)ccc2c1CC[C@H](NC(C)(C)C)[C@@H]2O` (relative stereo), 104 to 105 °C; in that of `CCCC(CNc1nc(C)c(OC)c(C)n1)c1ccccc1` (configuration not stated), 31 to 33 °C.
The figure for `CCc1c(C(=O)C(N)=O)c2c(OCC(=O)N(C)OC)cccc2n1Cc1ccccc1` is 168 to 170 °C; for `CC(C(=O)O)c1ccc(I)cc1` (configuration not stated) it is 101 to 102 °C; for `C=CCN(C(C)C)C(C)CC1=C(c2ccc(OC)cc2)CCCNC1=O` (configuration not stated) it is 95 to 97 °C.
In turn, `Cc1ccc2c(c1)C=Cc1cc(C)ccc1C2c1cn(-c2cc(N(C)CC(=O)Nc3nc(CC(=O)O)cs3)ncn2)c(=O)[nH]c1=S` had a melting point of 215 °C.
Take `CCCC12CCC3C4CCCC=C4CCC3C1CCC2=O` (configuration not stated): the melting point lay in the range of 89 to 90 °C.
In turn, `CC(Oc1ccc(-c2cc(C(F)(F)F)cc(S(N)(=O)=O)c2)cc1)C(O)CCc1cccnc1` (configuration not stated) yielded a melting point of 57 to 59 °C.
The figure for `CC(C)(C)c1ccc(/C=C/CO[Si](C)(C)C(C)(C)C)cc1[N+](=O)[O-]` is 33 to 34 °C; for `COC(=O)CN1C(=O)c2ccc(F)cc2S1(=O)=O` it is 86 °C.
The figure for `CC1(c2ccccc2)OC(=O)COC1=O` (configuration not stated) is 90 to 91 °C.
In the case of `O=[N+]([O-])c1cc(Cl)c(OCc2ccccc2-c2ccccc2)c(Cl)c1` it was 83 to 84.5 °C; in that of `CCOC(=O)COc1cc2cc(C3CCCCC3)sc2c(Cl)c1Cl`, 73 to 75 °C.
As to `CCN1CCC2(CC1)CN=C(c1cc3cccc(N(C)S(=O)(=O)c4cccs4)c3[nH]1)S2`, the melting point is 215 °C.
The compound `O=[N+]([O-])c1cc2nc(O)c(O)nc2c2nsnc12` came in with a melting point greater than 300 °C.
As for `COc1nc(C)nc(NC(=O)NS(=O)(=O)c2ccccc2C=CC(F)(F)F)n1`, the melting point was in the range of 154 to 155 °C.
In the case of `CCOC(=O)COc1ccc2cc(-c3cc4ccccc4s3)ccc2c1Br` it was 178 to 181 °C.
`CCc1csc2nc(C(=O)OC)cn12` returned a melting point of 147 to 149 °C.
As for `COCC(=O)Nc1c(C(=O)c2cccc(C)c2)[nH]c2cc(Cl)ccc12`, the melting point lay in the range of 155 to 157 °C.
For the compound `CCOC(=O)C(=CNc1cccc(C#N)c1)C(=O)OCC`, the melting point was in the range of 109 to 111 °C.
The figure for `CCOC(=O)c1cc2c(cn1)[nH]c1ccc(C(C)O)cc12` (configuration not stated) is 125 to 130 °C; for `O=C1NCC[C@@H](c2ccc(Oc3ccccc3)cc2)[C@@H]1c1ccccc1` (relative stereo) it is 157 to 159 °C; for `O=C(O)COc1cc(F)ccc1C(=S)NCc1nc2c(F)c(F)cc(F)c2s1` it is 150 °C.
The compound `Cc1ccc(-c2nc(C(F)(F)F)nc(Cl)c2-c2ccccc2)cc1` yielded a melting point of 97 to 100 °C.
The figure for `CC[C@H](C)C(OCc1ccccc1)[C@@H]1[C@H]([N+](=O)[O-])[C@H](c2ccccc2)N[C@]1(C)C(=O)NCCC(=O)O` (some centres not stated) is 104 to 105 °C; for `CCCN(CCC)C(=O)COc1nc(-c2ccccc2)nc(C)c1C` it is 88 to 89 °C.
In the case of `CC1(C)CC(NCC(O)COc2ccc(C(=O)c3ccccc3)c(O)c2)CC(C)(C)N1OC1CCCCC1` (configuration not stated) it was 118 to 121 °C; in that of `COc1ccc(NC(=O)NCc2ccc3c(c2)CN(C2CCC(=O)NC2=O)C3=O)cc1` (configuration not stated), 255 to 257 °C; in that of `COc1cc2c(c3c1OC(C)(C)C3)C(c1cccc(N(CC(N)=O)S(C)(=O)=O)c1)=NC(C)(C)C2`, 190 to 191 °C.
In the case of `COc1ccc(C=CC(=O)c2ccc(OCC(O)CN3CCN(c4ccccc4)CC3)cc2)cc1OC` (configuration not stated) it was 126 to 127 °C; in that of `CC(C)Oc1c(-c2ccc(S(C)(=O)=O)cc2)cnn(-c2cc(F)ccc2F)c1=O`, 161 to 164 °C; in that of `Cc1cc(Br)cc(/C=N/O)c1F`, 126 to 127 °C.
Compound `O=C(O)c1ccc2nc3c(c(=O)n2c1)CCC3=Cc1ccccc1` came in with a melting point of 153 to 154 °C.
In turn, `CN1CCN(C2c3ccccc3CC2O)CC1` (configuration not stated) came in with a melting point of 132 °C.
Consider `O=C1CCC(N2Cc3c(OCc4ccc(F)c(F)c4)cccc3C2=O)C(=O)N1` (configuration not stated), for which the melting point lay within 228 to 230 °C.
The figure for `C=C(C)c1cc(NC(=O)N2CCN(c3cc(C)cc(C)c3)CC2)c(OC)nc1C` is 140 to 142 °C; for `O=S1(=O)CS(=O)(=O)OCCO1` it is 176 to 180 °C.
As to `CCOc1cccc(-c2n[nH]c(-c3ccccc3C)n2)c1`, the melting point lay within 84 to 86 °C.
In the case of `Cc1oc(-c2ccccc2)nc1CCOc1ccc(OC(C)(C)C(=O)O)cc1`, the melting point is 129 to 130 °C.
In the case of `CC1CC(=O)NN=C1c1ccc(-n2cnc3c2CCCC3)nc1` (configuration not stated) it was 234 to 235 °C; in that of `O=C(c1ccccc1)c1ccc(S)cc1`, 72 to 75 °C; in that of `CS(=O)(=O)c1ccc(-c2cc3c(cc2C(=O)c2cc(F)cc(F)c2)OCCO3)cc1`, 191 to 193 °C.
The figure for `COc1ccccc1-c1cnn2ccc(N3CCN(C(=O)OC(C)C)CC3)nc12` is 57 to 59 °C; for `CCn1c(=O)c(Oc2ccc(F)cc2F)cc2cnc(NC3CCOCC3)nc21` it is 199 to 206 °C.
In turn, `COc1cccc(-c2ccc3ccc(N)nc3n2)c1` came in with a melting point of 270 to 275 °C.
The figure for `Nc1ccc(-c2ccccc2)cc1[N+](=O)[O-]` is 163 to 165 °C.
In the case of `Cc1cc2cc(Oc3ccccc3)cnc2cc1C` it was 224 °C; in that of `CCOC(=O)c1cn(C2CC2)c2c(CO)c(N3CCOCC3)c(F)cc2c1=O`, 212 to 216 °C; in that of `CCOC(=O)C(C)Oc1ncn(-c2ccc(OC)cc2)n1` (configuration not stated), 62 to 64 °C.
In the case of `CC(=O)c1c[nH]c2cn[nH]c2c1=O` it was greater than 320 °C; in that of `CCc1ccc2c(c1)c(-c1ccccc1Cl)c(C(=O)O)c(=O)n2C`, 200 to 201 °C.
